In ChEMBL document CHEMBL4270577, “Synthesis, anticancer activity and molecular modeling studies of 1,2,4-triazole derivatives as EGFR inhibitors” (Eur J Med Chem, 2018):

How the values were obtained:
[1] = system: 786-0; experiment: Cytotoxicity against human 786-0 cells incubated for 48 hrs by sulforhodamine B assay; format: functional; conditions: 786-0, 48 h
[2] = system: OVCAR-8; experiment: Cytotoxicity against human OVCAR8 cells incubated for 48 hrs by sulforhodamine B assay; format: functional; conditions: OVCAR-8, 48 h
[3] = target: Serine/threonine-protein kinase B-raf (Mus musculus, UniProt P28028, V600E); experiment: Inhibition of mouse full length GST-tagged BRAF V600E mutant using recombinant human His6-tagged MEK1 as substrate preincubated for 1 hr followed by substrate addition measured after 25 mins by ELISA
[4] = system: HCT-116; experiment: Cytotoxicity against human HCT116 cells incubated for 48 hrs by sulforhodamine B assay; format: functional; conditions: HCT-116, 48 h
[5] = system: CAKI-1; experiment: Cytotoxicity against human Caki1 cells incubated for 48 hrs by sulforhodamine B assay; format: functional; conditions: CAKI-1, 48 h
[6] = system: SK-OV-3; experiment: Cytotoxicity against human SKOV3 cells incubated for 48 hrs by sulforhodamine B assay; format: functional; conditions: SK-OV-3, 48 h
[7] = system: TK-10; experiment: Cytotoxicity against human TK10 cells incubated for 48 hrs by sulforhodamine B assay; format: functional; conditions: TK-10, 48 h
[8] = system: BT-549; experiment: Cytotoxicity against human BT549 cells incubated for 48 hrs by sulforhodamine B assay; format: functional; conditions: BT-549, 48 h
[9] = system: M14; experiment: Cytotoxicity against human M14 cells incubated for 48 hrs by sulforhodamine B assay; format: functional; conditions: M14, 48 h
[10] = system: RPMI-8226; experiment: Cytotoxicity against human RPMI8226 cells incubated for 48 hrs by sulforhodamine B assay; format: functional; conditions: RPMI-8226, 48 h
[11] = system: SK-MEL-28; experiment: Cytotoxicity against human SK-MEL-28 cells incubated for 48 hrs by sulforhodamine B assay; format: functional; conditions: SK-MEL-28, 48 h
[12] = system: NCI/ADR-RES; experiment: Cytotoxicity against human NCI/ADR-RES cells incubated for 48 hrs by sulforhodamine B assay; format: functional
[13] = system: NCI-H23; experiment: Cytotoxicity against human NCI-H23 cells incubated for 48 hrs by sulforhodamine B assay; format: functional; conditions: NCI-H23, 48 h
[14] = system: NCI-H460; experiment: Cytotoxicity against human NCI-H460 cells incubated for 48 hrs by sulforhodamine B assay; format: functional; conditions: NCI-H460, 48 h
[15] = system: HCT-15; experiment: Cytotoxicity against human HCT15 cells incubated for 48 hrs by sulforhodamine B assay; format: functional; conditions: HCT-15, 48 h
[16] = system: PC-3; experiment: Cytotoxicity against human PC3 cells incubated for 48 hrs by sulforhodamine B assay; format: functional; conditions: PC-3, 48 h
[17] = system: CCRF-CEM; experiment: Cytotoxicity against human CCRF-CEM cells incubated for 48 hrs by sulforhodamine B assay; format: functional
[18] = system: A549; experiment: Induction of apoptosis in human A549 cells assessed as viable cells at 1.4 uM after 24 hrs by Annexin V/propidium iodide staining based flow cytometric analysis (reference value: 98.03%); format: functional; conditions: A549, 24 h, read-out: Activity
[19] = system: MOLT-4; experiment: Cytotoxicity against human MOLT4 cells incubated for 48 hrs by sulforhodamine B assay; format: functional; conditions: MOLT-4, 48 h
[20] = system: HOP-92; experiment: Cytotoxicity against human HOP92 cells incubated for 48 hrs by sulforhodamine B assay; format: functional; conditions: HOP-92, 48 h
[21] = system: A549; experiment: Cell cycle arrest in human A549 cells assessed as accumulation at S phase at 1.4 uM after 24 hrs by propidium iodide staining based flow cytometry (reference value: 27.9%); format: functional
[22] = system: OVCAR-5; experiment: Growth inhibition of human OVCAR5 cells at 10 uM incubated for 48 hrs by sulforhodamine B assay relative to control; format: functional; conditions: OVCAR-5, 48 h, read-out: GI
[23] = system: MDA-MB-435; experiment: Cytotoxicity against human MDA-MB-435 cells incubated for 48 hrs by sulforhodamine B assay; format: functional; conditions: MDA-MB-435, 48 h
[24] = system: MDA-MB-468; experiment: Cytotoxicity against human MDA-MB-468 cells incubated for 48 hrs by sulforhodamine B assay; format: functional; conditions: MDA-MB-468, 48 h
[25] = system: A549; experiment: Cytotoxicity against human A549/ATCC cells incubated for 48 hrs by sulforhodamine B assay; format: functional; conditions: A549, 48 h
[26] = system: OVCAR-4; experiment: Cytotoxicity against human OVCAR4 cells incubated for 48 hrs by sulforhodamine B assay; format: functional; conditions: OVCAR-4, 48 h
[27] = system: HOP-62; experiment: Cytotoxicity against human HOP62 cells incubated for 48 hrs by sulforhodamine B assay; format: functional; conditions: HOP-62, 48 h
[28] = system: IGROV-1; experiment: Cytotoxicity against human IGROV1 cells incubated for 48 hrs by sulforhodamine B assay; format: functional; conditions: IGROV-1, 48 h
[29] = system: OVCAR-5; experiment: Cytotoxicity against human OVCAR5 cells incubated for 48 hrs by sulforhodamine B assay; format: functional; conditions: OVCAR-5, 48 h
[30] = system: A549; experiment: Induction of apoptosis in human A549 cells assessed as late apoptotic cells at 1.4 uM after 24 hrs by Annexin V/propidium iodide staining based flow cytometric analysis (reference value: 0.08%); format: functional
[31] = system: A549; experiment: Cell cycle arrest in human A549 cells assessed as accumulation at G1 phase at 1.4 uM after 24 hrs by propidium iodide staining based flow cytometry (reference value: 67.52%); format: functional
[32] = system: EKVX; experiment: Cytotoxicity against human EKVX cells incubated for 48 hrs by sulforhodamine B assay; format: functional
[33] = read-out: LC50 (the source's name)

Serine/threonine-protein kinase B-raf, sequence (P28028 whole entry, looked up, stated change not applied): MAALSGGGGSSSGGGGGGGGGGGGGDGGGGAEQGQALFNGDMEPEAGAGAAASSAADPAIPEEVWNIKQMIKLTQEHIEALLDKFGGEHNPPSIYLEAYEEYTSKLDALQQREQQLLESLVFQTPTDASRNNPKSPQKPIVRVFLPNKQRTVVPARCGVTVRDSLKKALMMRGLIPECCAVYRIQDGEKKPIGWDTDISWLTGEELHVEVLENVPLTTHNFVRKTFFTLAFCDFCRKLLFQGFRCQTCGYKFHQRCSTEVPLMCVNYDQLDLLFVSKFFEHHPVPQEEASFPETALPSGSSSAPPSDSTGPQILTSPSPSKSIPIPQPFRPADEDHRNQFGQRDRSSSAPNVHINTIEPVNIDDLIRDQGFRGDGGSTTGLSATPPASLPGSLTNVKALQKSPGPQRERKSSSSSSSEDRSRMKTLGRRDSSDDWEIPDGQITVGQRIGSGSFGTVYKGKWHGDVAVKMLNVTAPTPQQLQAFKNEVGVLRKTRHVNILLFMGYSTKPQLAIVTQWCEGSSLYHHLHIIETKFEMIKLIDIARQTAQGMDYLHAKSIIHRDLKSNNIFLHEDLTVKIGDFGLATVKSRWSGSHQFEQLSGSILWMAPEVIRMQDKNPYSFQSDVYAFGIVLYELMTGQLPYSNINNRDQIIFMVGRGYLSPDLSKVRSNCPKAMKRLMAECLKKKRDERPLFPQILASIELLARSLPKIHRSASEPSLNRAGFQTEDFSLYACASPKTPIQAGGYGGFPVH

## COc1ccc(-c2nc3sc(-c4ccc(Cl)cc4)cn3n2)cc1
[1]
  GI50: 1.06 µM
  TGI: 2.41 µM
[1]; [33]
  CC50: 6.7 µM
[2]
  GI50: 2.6 µM
  TGI: > 50 µM
[2]; [33]
  CC50: > 50 µM
[3]
  IC50: 4.7 µM
[4]
  GI50: 1.21 µM
  TGI: 3.48 µM
[4]; [33]
  CC50: > 50 µM
[5]
  GI50: 1.79 µM
  TGI: 8.92 µM
[5]; [33]
  CC50: 48.9 µM
[6]
  GI50: 11.7 µM
  TGI: > 50 µM
[6]; [33]
  CC50: > 50 µM
[7]
  GI50: 2.01 µM
  TGI: 5.62 µM
[7]; [33]
  CC50: 34.8 µM
[8]
  GI50: 43.2 µM
  TGI: > 50 µM
[8]; [33]
  CC50: > 50 µM
[9]
  GI50: > 50 µM
  TGI: > 50 µM
[9]; [33]
  CC50: > 50 µM
[10]
  GI50: 3.67 µM
  TGI: > 50 µM
[10]; [33]
  CC50: > 50 µM
[11]
  GI50: > 50 µM
  TGI: > 50 µM
[11]; [33]
  CC50: > 50 µM
[12]
  GI50: 3.75 µM
  TGI: > 50 µM
[12]; [33]
  CC50: > 50 µM
[13]
  GI50: 6.66 µM
  TGI: > 50 µM
[13]; [33]
  CC50: > 50 µM
[14]
  GI50: 1.33 µM
  TGI: 4 µM
[14]; [33]
  CC50: 18.9 µM
[15]
  GI50: 24.5 µM
  TGI: > 50 µM
[15]; [33]
  CC50: > 50 µM
[16]
  GI50: > 50 µM
  TGI: > 50 µM
[16]; [33]
  CC50: > 50 µM
[17]
  GI50: > 50 µM
  TGI: > 50 µM
[17]; [33]
  CC50: > 50 µM
[18]
  viability at 1.4 µM: 88%
[19]
  GI50: 11.3 µM
  TGI: > 50 µM
[19]; [33]
  CC50: > 50 µM
[20]
  GI50: 0.91 µM
  TGI: 7.61 µM
[20]; [33]
  CC50: > 50 µM
[21]
  Activity: 17.34%
[22]
  inhibition of growth at 10 µM: 48%
[23]
  GI50: > 50 µM
  TGI: > 50 µM
[23]; [33]
  CC50: > 50 µM
[24]
  GI50: 2.08 µM
  TGI: > 50 µM
[24]; [33]
  CC50: > 50 µM
[25]
  GI50: 1.59 µM
  TGI: 5.89 µM
[25]; [33]
  CC50: 46.9 µM
[26]
  GI50: 0.766 µM
  TGI: 1.63 µM
[26]; [33]
  CC50: 3.45 µM
[27]
  GI50: 2.36 µM
  TGI: > 50 µM
[27]; [33]
  CC50: > 50 µM
[28]
  GI50: 1.15 µM
  TGI: 8.13 µM
[28]; [33]
  CC50: > 50 µM
[29]
  GI50: 2.78 µM
  TGI: > 50 µM
[29]; [33]
  CC50: > 50 µM
[30]
  Activity: 4.62%
[31]
  Activity: 58.11%
[32]
  GI50: 4.82 µM
  TGI: > 50 µM
[32]; [33]
  CC50: > 50 µM
